# Laboratory results taken from patent publication US11452731B2, “Method of treating and preventing loss of cognition” (ENDORECHERCHE, INC., priority 2009, dated 2022).
# Several values for one entry are separate records, joined by “and”; a condition that tells them apart may be missing. Equal entries are not always repeated. Marks after values point to notes of the source that are not given here.
# Experiments:
# [1] = Endometrial epithelium thickness in OVX nude mice after 161 days of antiestrogen (Example 8); type: in vivo
# From the text: The 17 groups included two control groups (OVX and OVX+Estrone), seven groups supplemented with an estrone implant and treated with an antiestrogen and eight other groups that received an antiestrogen alone. The estrone implants were then removed from the animals in the ovariectomized control group (OVX) and in groups that were to receive the antiestrogen alone. […] Tamoxifen was purchased from […]) while toremifene citrate was purchased from Orion (Espoo, Finland). […] The antiestrogen suspensions at the appropriate concentration were prepared each month, stored at 4° C. and used under constant agitation. Powder stock were hermetically stored at 4° C. […] After 161 days of treatment, the remaining animals were anesthetized with isoflurane and killed by exsanguination. […] The uteri were prepared to evaluate endometrial thickness by image analysis performed with Image Pro-Plus (Media Cybernetics, Maryland, USA). […] Hematoxylin- and eosin-stained sections of mice uteri were analyzed. […] Mean epithelial cell height was measured in all animals of each group.
# [2] = tested on: ZR-75-1 human breast cancer xenografts; experiment: Growth and response of human ZR-75-1 breast tumors in OVX nude mice, 7 antiestrogens for 161 days with or without estrone (Example 8); type: in vivo
# Experimental: ZR-75-1 human breast cancer cells were obtained from the American Type Culture Collection (Rockville, Md.) and cultured in phenol red-free RPMI-1640 medium. […] (Saint-Constant, Québec, Canada). The mice (5 per cage) were housed in vinyl cages equipped with air filter lids, which were kept in laminar airflow hoods and maintained under pathogen-limiting conditions. The photoperiod was 12 hours of light and 12 hours of darkness (lights on at 07:15). Cages, bedding and food (Agway Pro-Lab R-M-H Diet #4018) were autoclaved before use. Water was autoclaved and provided ad libitum. Bilateral ovariectomy was performed under isoflurane-induced anesthesia. […] Randomization and treatments were started one week later. […] The estrone implants were then removed from the animals in the ovariectomized control group (OVX) and in groups that were to receive the antiestrogen alone. […] Tamoxifen was purchased from […]) while toremifene citrate was purchased from Orion (Espoo, Finland). […] The antiestrogen suspensions at the appropriate concentration were prepared each month, stored at 4° C. and used under constant agitation. Powder stock were hermetically stored at 4° C. […] Two perpendicular diameters were recorded and tumor area (mm2) was calculated using the formula: […] Tumor response was assessed at the end of the study or at death of each animal, if it occurred during the course of the experiment. In this case, only data of mice that survived for at least half of the study ([…]) were used in the tumor response analysis.
# [3] = tested on: ZR-75-1 human breast cancer xenografts; experiment: Tamoxifen and EM-652.HCl alone or combined on growth of ZR-75-1 xenografts in nude mice (FIG. 7); type: in vivo; conditions: ZR-75-1 xenografts in nude mice
# [4] = 12-week oral EM-800 (0.5 mg/kg) in intact rats: serum 17β-estradiol, mammary gland and endometrium histology; type: in vivo, rat; conditions: 12 weeks
# Experimental: The lobules (L) consist of a few alveoli. Insert. High magnification showing alveoli. • b) Animal treated with EM-800 (0.5 mg/kg, b w per day) for 12 weeks. […] Insert. High magnification showing atrophied alveolar cells.
# The luminal epithelium (LE) is characterized by columnar epithelial cells while the glandular epithelium (GE) is rather cuboidal. The stroma contains several cellular elements and collagen fibers. • b) Animal treated with EM-800 (0.5 mg/kg, b w per day) during 12 weeks. […] The glandular epithelial cells have unstained cytophasm with no sign of activity. The stroma is highly cellular due to reduction in intercellular elements of the stroma.
# [5] = tested on: ZR-75-1 human breast cancer xenografts; experiment: Growth and response of human ZR-75-1 breast tumor xenografts in estrone-supplemented OVX nude mice, DHEA and/or EM-800 for 9.5 months (Example 1); type: in vivo; conditions: 9.5 months; for Category of response: Complete (%) / Category of response: Complete (Number) / Category of response: Partial (%) / Category of response: Partial (Number) / Category of response: Progression (%) / Category of response: Progression (Number) / Category of response: Stable (%) / Category of response: Stable (Number) / Average tumor weight at end of experiment: E1-supplemented
# [6] = 12-month treatment of ovariectomized rats with DHEA alone or with Flutamide or EM-800: bone histomorphometry, bone markers, serum lipids; type: in vivo, rat; conditions: added to DHEA, OVX rats, 12 months
# [7] = 9-month treatment with DHEA and/or EM-800 in the rat: urinary and serum markers of bone metabolism; type: in vivo
# From the text: It is particularly important to indicate that the combination of DHEA and EM-800 exerted unexpected beneficial effects on important biochemical parameters of bone metabolism. […] Moreover, no effect of DHEA could be detected on daily urinary calcium or phosphorus excretion (Luo et al., 1997). EM-800 decreased the urinary hydroxyproline/creatinine ratio by 48% while, similarly to DHEA, no effect of EM-800 was seen on urinary calcium or phosphorus excretion. EM-800, moreover, had no effect on serum alkaline phosphatase activity, a marker of bone formation while DHEA increased the value of the parameter by about 75% (Luo et al., 1997).
# [8] = Uterine, vaginal and body weight in estrone-supplemented OVX nude mice (Example 1); type: in vivo; conditions: E1-supplemented
# Experimental: DHEA was dissolved in 50% ethanol 50% propylene glycol. […] Tumors were measured once a week with Vernier calipers.
# [9] = set-up: species or system Long-Evans rats; conditions: rat, in vivo
# From the text: For comparison purposes, values for the blood, plasma, liver (Table 13) and uterus from each of these animals were included.
# [10] = absence of estrone, 200 μg daily, 161 days
# [11] = estrone-supplemented, 50 μg daily, 161 days
# [12] = DHEA 0.3 mg, EM-800 15 μg, or EM-800 15 μg + DHEA 0.3 mg
# [13] = DHEA 1.0 mg, EM-800 50 μg, or EM-800 15 μg + DHEA 1.0 mg
# [14] = DHEA 3.0 mg, EM-800 100 μg, or EM-800 15 μg + DHEA 3.0 mg
# [15] = DHEA 10 mg, EM-800 75 μg, alone or combined
# [16] = EM-800 15 μg, or EM-800 15 μg + DHEA 0.3 mg
# [17] = EM-800 50 μg, or EM-800 15 μg + DHEA 1.0 mg
# [18] = EM-800 100 μg, or EM-800 15 μg + DHEA 3.0 mg
smiles,measurement,setting,value
"CC/C(=C(\c1ccccc1)c1ccc(OCCN(C)C)cc1)c1ccccc1 [Tamoxifen, (Z)-2-[4-(1,2-diphenyl-1-butenyl)phenoxy]-N,N-dimethylethanamine]",inhibition of the stimulatory effect of estrone on epithelial height,"[1]; 50 μg daily oral, estrone stimulation",32%
same,"height of uterine epithelial cells, % of the OVX control group value","[1]; 200 μg daily, absence of estrone",155%
same,ENDOMETRIAL EPITHELIUM THICKNESS (μm) ± SEM,"[1]; OVX + E1, antiestrogen 50 μg daily","33.44^b,d ± 0.04 μm"
same,ENDOMETRIAL EPITHELIUM THICKNESS (μm) ± SEM,"[1]; OVX without E1, antiestrogen 200 μg daily","28.47^b,d ± 0.05 μm"
same,increase of average tumor size over baseline (agonistic effect),[2]; [10],196%
same,"tumors in the progression category, %",[2]; [10],62%
same,"tumors in the progression category, number of total",[2]; [10],16 of 26
same,average tumor size above pretreatment values,"[2]; estrone-stimulated, 50 μg oral daily, 23 weeks",87%
same,"progressing tumors, % of tumors",[2]; [11],65%
same,"progressing tumors, number of total",[2]; [11],17 of 26
same,stimulatory effect on tumor growth,[3],approximately 100%
"CC1=C(c2ccc(OC(=O)C(C)(C)C)cc2)[C@H](c2ccc(OCCN3CCCCC3)cc2)Oc2cc(OC(=O)C(C)(C)C)ccc21 [EM-800, (+)-7-pivaloyloxy-3-(4′-pivaloyloxyphenyl)-4-methyl-2-(4″-(2′″-piperidi-noethoxy)phenyl)-2H-benzopyran]",elevation of circulating 17β-estradiol versus intact animals,[4]; EM-800 0.5 mg/kg orally daily,50%
same,effect on the endometrium (histology),[4]; EM-800 0.5 mg/kg,marked atrophy
same,effect on the mammary gland (histology),[4]; EM-800 0.5 mg/kg,marked atrophy
same,circulating levels of 17β-estradiol,"[4]; intact rats, EM-800 0.5 mg/kg orally daily",143.5 ± 7.8 pg/mL
same,Inhibition of estrone-stimulated ZR-75-1 tumor size,[5]; daily DHEA 0.3 mg or EM-800 15 μg,88% and 87.5%
same,Inhibition of estrone-stimulated ZR-75-1 tumor size,[5]; daily DHEA 1.0 mg or EM-800 50 μg,93% and 93.5%
same,Inhibition of estrone-stimulated ZR-75-1 tumor size,[5]; daily DHEA 3.0 mg or EM-800 100 μg,94%
same,Category of response: Complete (%),[5]; [12],29.4%
same,Category of response: Complete (Number),[5]; [12],5
same,Category of response: Partial (%),[5]; [12],5.9%
same,Category of response: Partial (Number),[5]; [12],1
same,Category of response: Progression (%),[5]; [12],35.3%
same,Category of response: Progression (Number),[5]; [12],6
same,Category of response: Stable (%),[5]; [12],29.4%
same,Category of response: Stable (Number),[5]; [12],5
same,Category of response: Complete (%),[5]; [13],25.0%
same,Category of response: Complete (Number),[5]; [13],4
same,Category of response: Partial (%),[5]; [13],18.8%
same,Category of response: Partial (Number),[5]; [13],3
same,Category of response: Progression (%),[5]; [13],25.0%
same,Category of response: Progression (Number),[5]; [13],4
same,Category of response: Stable (%),[5]; [13],31.2%
same,Category of response: Stable (Number),[5]; [13],5
same,Category of response: Complete (%),[5]; [14],50.0%
same,Category of response: Complete (Number),[5]; [14],8
same,Category of response: Partial (%),[5]; [14],0 (0) %
same,Category of response: Partial (Number),[5]; [14],0 (0)
same,Category of response: Progression (%),[5]; [14],31.2%
same,Category of response: Progression (Number),[5]; [14],5
same,Category of response: Stable (%),[5]; [14],18.8%
same,Category of response: Stable (Number),[5]; [14],3
same,Average tumor weight at end of experiment,"[5]; daily DHEA 0.3 mg, EM-800 15 μg, or EM-800 15 μg + DHEA 0.3 mg",0.08 ± 0.03 g
same,Average tumor weight at end of experiment,"[5]; daily DHEA 1.0 mg, EM-800 50 μg, or EM-800 15 μg + DHEA 1.0 mg",0.03 ± 0.01 g
same,Average tumor weight at end of experiment,"[5]; daily DHEA 3.0 mg, EM-800 100 μg, or EM-800 15 μg + DHEA 3.0 mg",0.04 ± 0.03 g
same,reversal of the stimulatory effect of DHEA on serum alkaline phosphatase,[6],no significant effect
same,decrease of urinary hydroxyproline/creatinine ratio (marker of bone resorption),[7],48%
same,effect on daily urinary calcium or phosphorus excretion,[7],no effect
same,increase of serum alkaline phosphatase activity (marker of bone formation),[7],no effect
same,Serum tALP,[7]; [15],114.11 ± 11.26 IU/L
same,Urine HP/Cr,[7]; [15],6.81 ± 0.84 μmol/mmol
same,Urine calcium,[7]; [15],17.44 ± 4.5 μmol/24 h/100 g
same,Urine phosphorus,[7]; [15],102.03 ± 25.13 μmol/24 h/100 g
same,UTERINE WEIGHT,[8]; [16],49 ± 3 mg
same,VAGINAL WEIGHT,[8]; [16],23 ± 1 mg
same,UTERINE WEIGHT,[8]; [17],36 ± 2 mg
same,VAGINAL WEIGHT,[8]; [17],15 ± 1 mg
same,UTERINE WEIGHT,[8]; [18],32 ± 1 mg
same,VAGINAL WEIGHT,[8]; [18],11 ± 1 mg
CC1=C(c2ccc(O)cc2)[C@H](c2ccc(OCCN3CCCCC3)cc2)Oc2cc(O)ccc21 [EM-652],accessibility to the CNS,[9],very poor accessibility
